Assay results reported in PubChem BioAssay (NCI).
Where “and” joins values, the source holds several entries; their conditions need not be identical. Equal entries are not always repeated.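 Compound exposure: 48 hours, 5 concentrations, 96-well plates. At the GI50, growth is halved. Definition used: TGI = concentration required for complete inhibition of growth.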 *1 amine or outer side, *2 acyl side, *3 side chain or, on linkers, in order; H or OH if unused. Where a SMILES comes first, the peptide text is derived from it. Bridges are numbered along the chain shown (N, C = ends). Roman numbers before positions name the chains, in order. [ ]: non-standard residue; d: D form. Actinocin(9to1) = Cc1c2oc3c(C)ccc(C(=O)[*:1])c3nc-2c(C(=O)[*:2])c(N)c1=O; NMeV = CN[CH](C(=O)O)C(C)C; Sar = CNCC(=O)O

Assays:
Assay in all cases: growth of human tumour cells (NCI), 48 h
[1] = test system: SK-MEL-28 melanoma
[2] = test system: MOLT-4 leukemia
[3] = test system: SK-MEL-5 melanoma
[4] = test system: HOP-92 NSCLC
[5] = test system: EKVX NSCLC
[6] = test system: COLO 205 colon
[7] = test system: OVCAR-4 ovarian
[8] = test system: UACC-62 melanoma
[9] = test system: TK-10 renal
[10] = test system: OVCAR-5 ovarian
[11] = test system: A549 NSCLC
[12] = test system: U251 CNS

SMILES	GI50 [1]	TGI [1]	GI50 [2]	TGI [2]	GI50 [3]	TGI [3]	GI50 [4]	TGI [4]	GI50 [5]	TGI [5]	TGI [6]	GI50 [7]	TGI [7]	TGI [8]	TGI [9]	TGI [10]	TGI [11]	TGI [12]	GI50 [9]
CC(C)(C)c1ccc(C(O)CCCN2CCC(C(O)(c3ccccc3)c3ccccc3)CC2)cc1 (stereo unspecified)	1.72 µM and 13.9 µM	3.11 µM and 19.2 µM	2.16 µM	5.32 µM	1.59 µM and 13.8 µM	2.93 µM and 23.5 µM	1.2 µM	2.6 µM	1.37 µM	2.77 µM	2.52 µM and 21.2 µM	1.44 µM	2.75 µM	–	–	–	–	–	–
CC1C(NNC(N)=O)Oc2cc3c(cc2C1c1ccccc1O)OCO3 (stereo unspecified)	–	> 100 µM	–	> 100 µM	–	> 100 µM	–	50.4 µM	–	> 100 µM	–	–	–	> 100 µM	> 100 µM	> 100 µM	> 100 µM	> 100 µM	–
O=C(NNC(=S)Nc1ccccc1)c1nsc2ccccc12	–	> 100 µM	–	98.5 µM	–	> 100 µM	–	90.5 µM	–	> 100 µM	> 100 µM	–	> 100 µM	85.7 µM	> 100 µM	> 100 µM	> 100 µM	> 100 µM	–
CC(C(=O)OCc1ccccc1)N(Cc1ccccc1)Cc1ccccc1 (stereo unspecified)	–	> 100 µM	–	> 100 µM	–	> 100 µM	–	> 100 µM	–	> 100 µM	> 100 µM	–	> 100 µM	> 100 µM	> 100 µM	> 100 µM	> 100 µM	> 100 µM	–
NC(Cc1ccc(OCc2ccccc2)cc1)C(=O)NC(Cc1ccccc1)C(=O)Oc1c(Cl)c(Cl)c(Cl)c(Cl)c1Cl (stereo unspecified)	–	31.6 µM	–	> 100 µM	–	32.4 µM	–	25.8 µM	–	41.6 µM	28.3 µM	–	35.5 µM	32.7 µM	28.9 µM	31.1 µM	37.5 µM	31.2 µM	–
Cc1c2oc3c(C)ccc(C(=O)NC4C(=O)NC(Cc5ccccc5)C(=O)N5CCCC5C(=O)N(C)CC(=O)N(C)C(C(C)C)C(=O)OC4C)c3nc-2c(C(=O)NC2C(=O)NC(Cc3ccccc3)C(=O)N3CCCC3C(=O)N(C)CC(=O)N(C)C(C(C)C)C(=O)OC2C)c(N)c1=O (stereo unspecified) (I: TFP[Sar][NMeV] / II: TFP[Sar][NMeV]; ester I:1-I:C, II:1-II:C; linker I:N-II:N via Actinocin(9to1); configuration not given here)	–	0.0298 µM and 0.0417 µM	–	< 0.001 µM	–	0.0192 µM and 0.0125 µM	–	–	–	–	0.0112 µM and 0.0174 µM	–	0.383 µM and 0.467 µM	0.00232 µM	1.65 µM and 5.66 µM	0.0551 µM	0.0252 µM	1.06 µM and 1.26 µM	0.0102 µM
COc1ccccc1OCC(COC(=O)Nc1ccccc1)OC(=O)Nc1ccccc1 (stereo unspecified)	–	> 100 µM	–	–	–	> 100 µM	–	28.7 µM	–	> 100 µM	> 100 µM	–	> 100 µM	> 100 µM	> 100 µM	> 100 µM	> 100 µM	> 100 µM	–
